# Patent US20040248775A1, “Methods for screening inhibitors of apoptosis” (Wyeth, priority 2003, published 2004)
# Target: T1, NBS mutant NALP1 (Homo sapiens, UniProt Q9C000, G339E/K340A)
# T1 construct: to generate full-length NALP1 in frame with EGFP; expressed in transfected cells; host or cells: HeLa cells, transient transfection; S-100 extract used
# T1 sequence (Q9C000 1-1473 G339E/K340A): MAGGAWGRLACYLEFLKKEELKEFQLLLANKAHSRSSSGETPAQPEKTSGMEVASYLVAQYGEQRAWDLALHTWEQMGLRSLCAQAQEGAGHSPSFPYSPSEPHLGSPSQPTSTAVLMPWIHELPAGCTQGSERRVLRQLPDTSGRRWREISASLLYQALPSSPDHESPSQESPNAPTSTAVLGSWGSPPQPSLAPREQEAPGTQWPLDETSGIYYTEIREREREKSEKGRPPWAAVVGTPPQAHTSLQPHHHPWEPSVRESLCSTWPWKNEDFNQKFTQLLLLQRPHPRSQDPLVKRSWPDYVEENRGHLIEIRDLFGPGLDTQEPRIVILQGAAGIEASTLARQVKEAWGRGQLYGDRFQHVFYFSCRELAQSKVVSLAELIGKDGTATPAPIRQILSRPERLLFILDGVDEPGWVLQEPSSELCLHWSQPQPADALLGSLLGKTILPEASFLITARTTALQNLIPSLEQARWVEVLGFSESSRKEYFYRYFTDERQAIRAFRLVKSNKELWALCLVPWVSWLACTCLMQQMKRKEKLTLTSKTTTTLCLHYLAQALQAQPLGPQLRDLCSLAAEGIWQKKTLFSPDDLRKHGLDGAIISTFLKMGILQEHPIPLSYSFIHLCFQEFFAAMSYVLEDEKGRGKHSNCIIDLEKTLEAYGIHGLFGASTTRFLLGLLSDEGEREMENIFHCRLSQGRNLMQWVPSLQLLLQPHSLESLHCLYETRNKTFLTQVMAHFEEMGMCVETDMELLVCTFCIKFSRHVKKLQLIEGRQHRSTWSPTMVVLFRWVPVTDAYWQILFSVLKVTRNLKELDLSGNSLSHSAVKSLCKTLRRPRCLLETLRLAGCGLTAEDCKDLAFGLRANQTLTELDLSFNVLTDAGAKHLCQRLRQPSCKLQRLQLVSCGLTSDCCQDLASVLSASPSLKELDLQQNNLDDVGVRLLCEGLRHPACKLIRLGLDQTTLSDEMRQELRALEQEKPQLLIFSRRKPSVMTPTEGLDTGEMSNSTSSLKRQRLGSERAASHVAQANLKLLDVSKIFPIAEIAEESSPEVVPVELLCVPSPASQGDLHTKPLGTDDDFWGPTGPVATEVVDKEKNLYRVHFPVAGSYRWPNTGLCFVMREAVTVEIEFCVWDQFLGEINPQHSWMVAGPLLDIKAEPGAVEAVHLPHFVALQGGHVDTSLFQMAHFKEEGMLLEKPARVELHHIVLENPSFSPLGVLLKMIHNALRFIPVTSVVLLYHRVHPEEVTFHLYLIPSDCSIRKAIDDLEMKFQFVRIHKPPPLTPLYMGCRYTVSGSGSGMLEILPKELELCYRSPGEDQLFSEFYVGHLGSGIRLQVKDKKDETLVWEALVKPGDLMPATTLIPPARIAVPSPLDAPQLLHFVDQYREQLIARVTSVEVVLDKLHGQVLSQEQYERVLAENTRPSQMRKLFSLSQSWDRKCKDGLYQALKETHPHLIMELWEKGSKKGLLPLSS
# Assay: Fluorimetric DEVDase (caspase-3) assay in HeLa cell extracts expressing NBS mutant NALP1-EGFP
# Format: biochemical
# Conditions: 2 mM dATP, 2 mM MgCl2, 1 hour, Ac-DEVD-AMC substrate
# Description: Cell extract preparation and fluorimetric assay of caspase activity. Preparation of cell extracts, dATP incubation and caspase-3 activities assays were performed as described by Liu et al. (1996). Briefly, HeLa cells were grown in DMEM, 10% FBS. Cells were plated in T175 flasks to 60% confluence. Control vector pEGFP or wild-type or NBS mutant NALP1-EGFP expression plasmids were transfected into HeLa cells using Lipofectamine Plus. Cells were collected in homogenization buffer (20 mM HEPES pH 7.5, 10 mM KCl, 1 mM sodium EDTA, […], 1 mM sodium EGTA, 0.1% CHAPS, 1 mM DTT, 0.1 mM PMSF and protease inhibitor cocktail tablets (Roche)), 24 hours after transfection. Cells were chilled on ice for 15 minutes and homogenized by douncing 30 times in a glass douncer. Samples were centrifuged at 1000×g for 10 minutes at 4° C. […] After 2 hours incubation, liberation of AMC (7-amino-4-methylcoumarin) from the substrate was monitored using excitation/emission wavelength pairs (λex/λem) of 380/460 nm using a SpectraFluor Plus instrument (Tecan). Triplicate samples were evaluated with or without specific inhibitors. […] Normalized data from multiple experiments were expressed as means±standard deviation. For each experiment, the expression of EGFP-tagged NALP1 proteins was analyzed by anti-GFP immunoblot and quantified by densitometry.
compound,measurement,value
Nc1ncnc2c1ncn2[C@H]1C[C@H](O)[C@@H](COP(=O)(O)OP(=O)(O)OP(=O)(O)O)O1 [dATP],"DEVDase activity, extracts with NBS mutant NALP1",did not respond
